According to article PMC5396026 (Chemical Research in Toxicology, 2016):

Target: T1, AR (Homo sapiens, UniProt P10275)
T1 sequence (P10275 1-920): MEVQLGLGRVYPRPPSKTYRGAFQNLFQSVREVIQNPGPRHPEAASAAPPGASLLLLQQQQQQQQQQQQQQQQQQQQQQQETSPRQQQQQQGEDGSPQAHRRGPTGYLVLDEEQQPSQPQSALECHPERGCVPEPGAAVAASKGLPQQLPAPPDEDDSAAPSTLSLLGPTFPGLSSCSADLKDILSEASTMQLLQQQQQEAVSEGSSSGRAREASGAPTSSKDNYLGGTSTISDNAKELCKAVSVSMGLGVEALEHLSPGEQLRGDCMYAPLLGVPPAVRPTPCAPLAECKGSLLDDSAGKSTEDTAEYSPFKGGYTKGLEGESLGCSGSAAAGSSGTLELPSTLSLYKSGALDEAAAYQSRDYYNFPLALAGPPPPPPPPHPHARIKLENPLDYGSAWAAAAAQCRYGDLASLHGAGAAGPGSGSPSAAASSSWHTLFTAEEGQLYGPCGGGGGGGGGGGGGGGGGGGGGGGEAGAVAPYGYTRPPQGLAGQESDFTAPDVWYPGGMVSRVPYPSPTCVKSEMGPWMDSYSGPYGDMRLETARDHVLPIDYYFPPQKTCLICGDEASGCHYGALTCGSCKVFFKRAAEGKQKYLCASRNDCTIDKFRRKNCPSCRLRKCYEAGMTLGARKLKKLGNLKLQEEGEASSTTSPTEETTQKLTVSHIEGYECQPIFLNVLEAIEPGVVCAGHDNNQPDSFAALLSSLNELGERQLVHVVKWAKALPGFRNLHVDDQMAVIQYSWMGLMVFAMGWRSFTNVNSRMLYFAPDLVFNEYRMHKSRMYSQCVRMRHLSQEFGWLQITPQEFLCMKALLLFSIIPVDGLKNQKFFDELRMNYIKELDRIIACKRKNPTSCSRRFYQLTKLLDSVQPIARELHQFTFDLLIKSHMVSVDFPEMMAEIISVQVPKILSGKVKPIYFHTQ
Test: not given
Format: cell-based
Settings: AC50 at 10 nM vs 0.5 nM R1881, 95% confidence intervals

**Q.** How did the “potency shift in antagonist confirmation assay” value (“potency shift” for short) turn out when `CCN=C1C=CC(=C(c2ccc(N(CC)CC)cc2)c2ccc(N(CC)CC)cc2)c2ccccc21.Cl` [basic blue 7] was run?
**A.** Its value is “flagged for a lack of a potency shift”.

**Q.** How did the “potency shift” value turn out when `CC[C@H](c1ccc(O)cc1)[C@@H](CC)c1ccc(O)cc1` [meso-hexestrol] was run?
**A.** The value was “shift in the correct direction but with overlapping confidence intervals”.

**Q.** How did the “potency shift” value turn out when `CC/N=c1\cc2oc3cc(NCC)c(C)cc3c(-c3ccccc3C(=O)OCC)c-2cc1C` [rhodamine 6G] was run?
**A.** The value was “flagged for a lack of a potency shift”.

**Q.** With `C[C@H]1CCCC(=O)CCC/C=C/c2cc(O)cc(O)c2C(=O)O1` [zearalenone] as the molecule, how does the “potency shift” value read?
**A.** The value was “active in both screens and exhibited a potency shift in the expected direction”.

System: AR pathway
Test: not given
Settings: not given

**Q.** For `C[C@]12CC[C@@H]3c4ccc(O)cc4CC[C@H]3[C@@H]1CC[C@H]2O` [17a-estradiol], which “AR pathway model AUC, Agonist (R1)” value is on record?
**A.** Its value is 0.67.

**Q.** For `CC/C(=C(\c1ccccc1)c1ccc(OCCN(C)C)cc1)c1ccccc1` [tamoxifen], which “AR pathway model AUC, Agonist (R1)” value is on record?
**A.** Its value is 0.0335.

Same assay, conditions: agonist reference chemicals

**Q.** `C[C@]12CC[C@@H]3c4ccc(O)cc4CC[C@H]3[C@@H]1CC[C@H]2O` [17a-estradiol] was tested. Which “AR pathway model agonist prediction against reference classification” value did it give?
**A.** The value was “false positive”.

Same assay, conditions: antagonist reference chemicals

**Q.** How did the “AR pathway model antagonist prediction against reference classification” value turn out when `C[C@H]1CCCC(=O)CCC/C=C/c2cc(O)cc(O)c2C(=O)O1` [zearalenone] was run?
**A.** The value was “false negative”.

Same assay, conditions: maximum of agonist or antagonist AUC

**Q.** For `Oc1ccccc1-c1ccccc1` [2-phenylphenol], which “AR pathway model call” value is on record?
**A.** The value was “negative (negative if the maximum was <0.001)”.

**Q.** With `CNC(=O)Oc1cccc2ccccc12` [carbaryl] as the molecule, how does the “AR pathway model call” value read?
**A.** Its value is “negative (negative if the maximum was <0.001)”.

**Q.** How did the “AR pathway model call” value turn out when `CCOP(=S)(OCC)Oc1cc(C)nc(C(C)C)n1` [diazinon] was run?
**A.** The value was “negative (negative if the maximum was <0.001)”.

**Q.** Which “AR pathway model call” value does the source give for `N#Cc1c(Cl)cccc1Cl` [dichlobenil] here?
**A.** Its value is “negative (negative if the maximum was <0.001)”.

**Q.** With `CCc1cccc(C)c1N(C(=O)CCl)C(C)COC` (stereo not drawn) [metolachlor] as the molecule, how does the “AR pathway model call” value read?
**A.** Its value is “negative (negative if the maximum was <0.001)”.

**Q.** How did the “AR pathway model call” value turn out when `CCCCC(C#N)(Cn1cncn1)c1ccc(Cl)cc1` (stereo not drawn) [myclobutanil] was run?
**A.** Its value is “negative (negative if the maximum was <0.001)”.

**Q.** How did the “AR pathway model call” value turn out when `COP(=S)(OC)SCN1C(=O)c2ccccc2C1=O` [phosmet] was run?
**A.** Its value is “negative (negative if the maximum was <0.001)”.

System: cytotoxicity
Test: not given
Format: cell-based
Settings: distance of AR assay logAC50 from median cytotoxicity logAC50; high = >3

**Q.** How did the “average Z-score” value turn out when `O=c1cc(-c2ccc(O)cc2)oc2cc(O)cc(O)c12` [apigenin] was run?
**A.** The value was “high”.

**Q.** Which “average Z-score” value does the source give for `CC(C)(O)C(=O)Nc1ccc([N+](=O)[O-])c(C(F)(F)F)c1` [hydroxyflutamide] here?
**A.** Its value is “high”.

**Q.** For `CON(C)C(=O)Nc1ccc(Cl)c(Cl)c1` [linuron], which “average Z-score” value is on record?
**A.** Its value is “high”.

**Q.** Which “average Z-score” value does the source give for `CC1(C)NC(=O)N(c2ccc([N+](=O)[O-])c(C(F)(F)F)c2)C1=O` [nilutamide] here?
**A.** Its value is “high”.

**Q.** Which “average Z-score” value does the source give for `CC(=O)S[C@@H]1CC2=CC(=O)CC[C@]2(C)[C@H]2CC[C@@]3(C)[C@@H](CC[C@@]34CCC(=O)O4)[C@H]12` [spironolactone] here?
**A.** The value was “high”.

**Q.** `C=CC1(C)OC(=O)N(c2cc(Cl)cc(Cl)c2)C1=O` (stereo not drawn) [vinclozolin] was tested. Which “average Z-score” value did it give?
**A.** The value was “high”.

Target: T2, AR (Rattus norvegicus, UniProt P15207)
T2 sequence (P15207 1-902): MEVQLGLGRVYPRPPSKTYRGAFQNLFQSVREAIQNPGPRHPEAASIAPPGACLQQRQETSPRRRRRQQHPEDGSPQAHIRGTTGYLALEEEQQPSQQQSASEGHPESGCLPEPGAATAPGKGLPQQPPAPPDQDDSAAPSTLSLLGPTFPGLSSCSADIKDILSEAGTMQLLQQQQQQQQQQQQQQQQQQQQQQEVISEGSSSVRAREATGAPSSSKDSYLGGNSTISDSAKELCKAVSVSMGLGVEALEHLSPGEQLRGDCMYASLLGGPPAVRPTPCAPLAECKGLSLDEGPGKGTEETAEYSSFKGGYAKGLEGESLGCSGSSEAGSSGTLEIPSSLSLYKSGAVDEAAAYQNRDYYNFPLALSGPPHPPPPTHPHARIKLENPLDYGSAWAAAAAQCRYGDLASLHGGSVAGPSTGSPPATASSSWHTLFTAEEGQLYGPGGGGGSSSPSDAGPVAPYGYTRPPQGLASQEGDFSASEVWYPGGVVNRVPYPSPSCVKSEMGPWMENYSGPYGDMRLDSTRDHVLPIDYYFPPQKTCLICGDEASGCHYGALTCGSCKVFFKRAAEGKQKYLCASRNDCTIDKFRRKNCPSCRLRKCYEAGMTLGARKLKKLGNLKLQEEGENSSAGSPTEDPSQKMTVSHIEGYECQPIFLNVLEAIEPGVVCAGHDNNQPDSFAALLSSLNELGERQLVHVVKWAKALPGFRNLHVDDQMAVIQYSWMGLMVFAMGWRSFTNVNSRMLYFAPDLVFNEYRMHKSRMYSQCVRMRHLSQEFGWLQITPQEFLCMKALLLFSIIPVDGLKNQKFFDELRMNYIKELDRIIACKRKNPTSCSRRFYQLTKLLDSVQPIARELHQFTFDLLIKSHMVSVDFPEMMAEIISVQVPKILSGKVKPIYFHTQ
Test: Literature review: AR transactivation assays, agonist mode
Settings: reference classification from curated literature TA data (mean AC50)

**Q.** `C[C@]12C=CC3=C4CCC(=O)C=C4CC[C@H]3[C@@H]1CC[C@@H]2O` [17b-trenbolone] was tested. Which agonist potency category did it give?
**A.** The agonist potency category was “strong (Strong: mean AC50 ≤ 0.1 μM)”.

**Q.** How did the agonist potency category turn out when `C[C@]12CC[C@@H]3c4ccc(O)cc4C[C@@H](CCCCCCCCC[S+]([O-])CCCC(F)(F)C(F)(F)F)[C@H]3[C@@H]1CC[C@@H]2O` (stereo partly drawn) [ICI 182,780] was run?
**A.** The agonist potency category was “negative”.

**Q.** Which agonist potency category does the source give for `CCCCNC(=O)n1c(NC(=O)OC)nc2ccccc21` [benomyl] here?
**A.** The agonist potency category was “negative”.

**Q.** Which agonist potency category does the source give for `COC(=O)Nc1nc2ccccc2[nH]1` [carbendazim] here?
**A.** Its agonist potency category is “negative”.

**Q.** For `CC1(C)[C@H](C(=O)O[C@H](C#N)c2cccc(Oc3ccccc3)c2)[C@@H]1C=C(Br)Br` [deltamethrin], which agonist potency category is on record?
**A.** Its agonist potency category is “negative”.

**Q.** How did the agonist potency category turn out when `C[C@]1(O)CC[C@H]2[C@@H]3CCC4=CC(=O)CCC4=C3C=C[C@@]21C` [methyltrienolone (R1881), methyltrienolone] was run?
**A.** Its agonist potency category is “strong (Strong: mean AC50 ≤ 0.1 μM)”.

**Q.** For `CC1(C)C(C=C(Cl)Cl)C1C(=O)OCc1cccc(Oc2ccccc2)c1` (stereo not drawn) [permethrin], which agonist potency category is on record?
**A.** Its agonist potency category is “negative”.

**Q.** `Oc1ccc(/C=C/c2cc(O)cc(O)c2)cc1` [resveratrol] was tested. Which agonist potency category did it give?
**A.** The agonist potency category was “negative”.

**Q.** For `CC(C)=CC1C(C(=O)OCN2C(=O)C3=C(CCCC3)C2=O)C1(C)C` (stereo not drawn) [tetramethrin], which agonist potency category is on record?
**A.** The agonist potency category was “negative”.
